According to ChEMBL document CHEMBL1201862, “PubChem BioAssay data set” (2004):
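Briefly, cells in 96-well plates were exposed to five compound concentrations for 48 h, and endpoints were estimated by linear interpolation. GI50 is the concentration that inhibits growth by half.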 Activity calls are given as the source filed them. Cut-off read from the data, not from the text of the source: active = GI50 up to about 1.1 µM and inactive = higher.

What was measured:
Assay in all cases: DTP human tumour cell line panel, 48 h
[1] = system: ACHN
[2] = system: NCI-H23
[3] = system: NCI-H460
[4] = system: M14
[5] = system: HCT-116
[6] = system: Hs-578T
[7] = system: SK-OV-3
[8] = system: SK-MEL-5
[9] = system: T47D
[10] = system: NCI-H226
[11] = system: SF-268
[12] = system: OVCAR-4
[13] = system: A549
[14] = system: NCI-H522
[15] = system: MDA-N
[16] = system: PC-3

Measured: GI50

CCN(CC)CCOC(NC(C)=O)(c1ccccc1)c1ccccc1
inactive: [1] > 100 µM | [2] > 100 µM | [3] > 100 µM | [4] > 100 µM | [5] > 100 µM | [6] > 100 µM | [7] > 100 µM | [8] > 100 µM | [9] > 100 µM | [10] > 100 µM | [11] > 100 µM | [12] > 100 µM | [13] > 100 µM

Cc1ccc([S+]([O-])c2sccc2C=O)cc1 (stereo unspecified)
inactive: [1] 63 µM | [2] 30.8 µM | [3] 21.9 µM | [4] 20 µM | [14] 41.1 µM | [5] 16.4 µM | [6] 24.4 µM | [7] > 100 µM | [8] 29.1 µM | [9] 43.7 µM | [15] 27.6 µM | [11] 28.8 µM | [16] 34 µM | [12] 29 µM | [13] > 100 µM

C[C@@H]1S[C@H](c2c(Cl)cccc2Cl)N2Cc3ccccc3N=C12
inactive: [1] > 100 µM | [2] > 100 µM | [3] > 100 µM | [4] > 100 µM | [5] 11.5 µM | [6] > 100 µM | [7] > 100 µM | [8] > 100 µM | [9] > 100 µM | [15] > 100 µM | [11] > 100 µM | [16] > 100 µM | [12] > 100 µM | [13] > 100 µM

C[n+]1cn(-c2ccc([N+](=O)[O-])cn2)c2ccccc21
inactive: [1] > 100 µM | [2] > 100 µM | [3] > 100 µM | [4] > 100 µM | [5] > 100 µM | [6] > 100 µM | [7] > 100 µM | [8] > 100 µM | [9] > 100 µM | [10] > 100 µM | [11] > 100 µM | [16] > 100 µM | [12] > 100 µM | [13] > 100 µM

COC(=O)c1cc(/C=C/C(=O)Cc2ccccc2)cn1S(=O)(=O)c1ccccc1
inactive: [1] > 100 µM | [2] > 100 µM | [3] > 100 µM | [4] > 100 µM | [14] > 100 µM | [5] > 100 µM | [6] > 100 µM | [7] > 100 µM | [8] > 100 µM | [9] > 100 µM | [15] > 100 µM | [11] > 100 µM | [16] > 100 µM | [12] > 100 µM | [13] > 100 µM

CC(=O)OC1CC[C@@]2(C)C(=CC[C@@H]3[C@@H]2CC[C@]2(C)C(OC(C)=O)[C@H](n4ccnc4)C[C@@H]32)C1 (stereo partly specified)
inactive: [1] 40.3 µM | [2] 37.5 µM | [3] 17.4 µM | [4] 17.2 µM | [14] 14.4 µM | [5] 14.9 µM | [6] 47 µM | [8] 16.3 µM | [15] 21 µM | [10] 36.6 µM | [11] 41.5 µM | [16] 16.2 µM | [12] 20.9 µM | [13] 35.3 µM

CC(=O)OC[C@@]12Cc3ccc(C)c(O)c3[C@]1(C)[C@@H](OC(C)=O)[C@]1(O)[C@H]([C@@H](OC(=O)c3ccccc3)[C@@H](C)[C@H]1OC(C)=O)[C@H]2OC(C)=O
inactive: [1] > 50 µM | [2] > 50 µM | [3] > 50 µM | [4] > 50 µM | [14] > 50 µM | [5] > 50 µM | [6] > 50 µM | [7] > 50 µM | [8] > 50 µM | [9] > 50 µM | [10] > 50 µM | [11] > 50 µM | [16] > 50 µM | [12] > 50 µM

COc1ccc(/C=C2/CSCC3=C2N=C(S)NC3c2ccc(OC)c(OC)c2OC)c(OC)c1OC (stereo unspecified)
inactive: [1] 19 µM | [2] 18.9 µM | [3] 27.6 µM | [4] 12.6 µM | [14] 22.1 µM | [5] 8.09 µM | [6] > 100 µM | [7] 49.7 µM | [8] 11.1 µM | [9] 43.4 µM | [10] 35 µM | [11] 16.8 µM | [16] 12.1 µM | [12] 2.61 µM | [13] 24.8 µM

O=C(CNC(=O)OCc1ccccc1)NCCCCC(NC(=O)OCc1ccccc1)C(=O)NC(CCCCNC(=O)CNC(=O)OCc1ccccc1)C(=O)OCc1ccccc1 (stereo unspecified)
inactive: [1] > 62.5 µM | [2] > 62.5 µM | [3] > 62.5 µM | [4] > 62.5 µM | [14] 26.9 µM | [5] > 62.5 µM | [8] > 62.5 µM | [9] > 62.5 µM | [10] > 62.5 µM | [11] > 62.5 µM | [16] > 62.5 µM | [12] > 62.5 µM | [13] > 62.5 µM

O=C(NNC(=O)c1ccncc1)c1ccncc1
inactive: [1] > 100 µM | [2] > 100 µM | [3] > 100 µM | [4] > 100 µM | [14] > 100 µM | [5] > 100 µM | [6] > 100 µM | [7] > 100 µM | [8] > 100 µM | [9] > 100 µM | [15] > 100 µM | [11] > 100 µM | [16] > 100 µM | [12] > 100 µM | [13] > 100 µM

Nc1cc(CO)cc(Nc2nc3ccc(Cl)cc3c3[nH]c4ccccc4c23)c1
inactive: [1] 3.17 µM | [2] 6.28 µM | [3] 2.2 µM | [4] 4.98 µM | [14] 2.79 µM | [5] 3.34 µM | [6] 5.43 µM | [7] 3.24 µM | [9] 3.74 µM | [15] 6.65 µM | [11] 2.86 µM | [16] 4.92 µM | [13] 3.2 µM

O=C(CSCC(=O)N/N=C/c1ccncc1)N/N=C/c1ccncc1
inactive: [1] > 100 µM | [2] > 100 µM | [3] > 100 µM | [4] > 100 µM | [14] > 100 µM | [5] > 100 µM | [6] > 100 µM | [7] > 100 µM | [8] > 100 µM | [9] > 100 µM | [10] > 100 µM | [11] > 100 µM | [16] > 100 µM | [12] > 100 µM | [13] > 100 µM

CC(=O)C1(Cc2cccc3ccccc23)S(=O)(=O)OCCOS1(=O)=O
inactive: [1] 18.7 µM | [2] 22.9 µM | [3] 17.3 µM | [4] 23.4 µM | [14] 21.6 µM | [5] 19.6 µM | [7] 2.72 µM | [8] 12.2 µM | [9] 18.5 µM | [15] 11.8 µM | [10] 16.8 µM | [11] 19.9 µM | [16] 14.2 µM | [12] 21.7 µM

Cn1c(=N)n[n+]([O-])c2ccccc21
inactive: [1] 5.48 µM | [2] 2.16 µM | [4] 1.95 µM | [14] 2.86 µM | [5] 4.14 µM | [7] 22.9 µM | [8] 1.59 µM | [15] 1.66 µM | [10] 13.4 µM | [16] 6.28 µM | [12] 1.94 µM | [13] 11.7 µM
